Test results from the METLIN SMRT retention time set (Domingo-Almenara et al. 2019).

Assay: gradient 5% acetonitrile 3 min, to 50% in 2 min, to 85% in 15 min, held 3 min, 100 µL/min
Conditions: column: Zorbax Extend-C18 2.1 x 50 mm; eluents: water / acetonitrile, 0.1% formic acid
Procedure, shortened: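 Retention times of pure standards were taken from adduct peaks that were selected by computer and manually inspected. Over 3 months, mixtures of ~100 molecules were run by HPLC–quadrupole time-of-flight mass spectrometry in positive and negative ionization mode. The Zorbax Extend-C18 column (2.1 × 50 mm, 1.8 μm) ran at 100 μL/min in water and acetonitrile, each containing 0.1% formic acid, with 40 μL dead volume and 900 μL dwell volume.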

| Compound | RP-LC retention time [s] |
| --- | --- |
| CCc1noc(CN2N=C(C(=O)N3CCC(C)CC3)S(=O)(=O)c3ccccc32)n1 | 886 |
| CC(C)OCCCNc1nc(Nc2ccc3c(c2)OCO3)c2cnn(-c3ccccc3)c2n1 | 1140 |
| Cc1nc2ccn(Cc3ccco3)c(=O)c2cc1C(=O)NCCC1=CCCCC1 | 828 |
| O=C1c2ccccc2C(=O)N1CC(=O)N(Cc1ccccc1)c1cccc([N+](=O)[O-])c1 | 916 |
| c1cc(-c2noc(-c3n[nH]c4c3CCCC4)n2)cc(-c2ccn[nH]2)c1 | 836 |
| Cc1ccccc1Cc1nc(-c2ccnc(N3CCOCC3)c2)no1 | 908 |
| C=CCN(CC=C)S(=O)(=O)c1ccc(C(=O)N2CCc3ccccc3C2)cc1 | 940 |
| Cc1cccc(-c2noc(Cn3cnc4c(oc5ccccc54)c3=O)n2)c1 | 996 |
| O=C(CC1CCCC1)N1CCC(c2noc(-c3cnccn3)n2)C1 (stereo not drawn) | 726 |
| CNCc1ccc(-c2cccc(C(F)(F)F)c2)o1 | 673 |
| CC(=O)OC1CCN(C(=O)NC(C)C)CC1 | 621 |
| COC(=O)c1ccc(C2CC(=O)Nc3c(-c4ccc(OC)cc4)csc32)cc1 (stereo not drawn) | 1000 |
| CCCn1cc(C(=O)NCCN2CCCC2)c2cccnc21 | 589 |
| CCOC(=O)C1CCC(CNC(=O)Nc2cc3c(cc2N2CCCCC2)n(C)c(=O)n3C)CC1 (stereo not drawn) | 689 |
| Cn1cc(C(=O)NCc2ccccn2)c2cccnc21 | 552 |
| COc1ccc(C2CC(=O)N(c3cccc(Cl)c3)C(=O)C2)cc1OC | 881 |
| COC(=O)c1c(N)n(-c2cccc(F)c2)c2nc3ccccc3nc12 | 685 |
| Clc1ccc(Cl)c(-c2ccc(CNCc3cccnc3)o2)c1 | 664 |
| Cc1noc(-c2cccc(OC3CN(C(=O)c4cnn(C)c4)C3)c2)n1 | 700 |
| CCCCN(C)C(=O)Cn1c(C2CC(=O)N(c3ccc(OC)cc3)C2)nc2ccccc21 (stereo not drawn) | 712 |

| Compound | RP-LC retention time [s] |
| --- | --- |
| C=CCN(C)C(=O)c1cnn2c3c(cnc12)CCCCCC3 | 827 |
| COc1ccccc1CNC(=O)c1c(C)sc2ccn(CC(C)C)c(=O)c12 | 989 |
| Cc1ccc(Cn2c(N3CCC(C(=O)NC4CC4)CC3)nc3ccsc3c2=O)cc1 | 783 |
| Cc1ccc(Nc2nc(-c3ccc4c(c3)OCO4)cs2)nc1 | 863 |
| Cc1nnc(-c2cn(CC(=O)NCc3ccccc3Cl)c3ccccc23)o1 | 821 |
| CC(C)c1nc(-n2cccc2)sc1C(=O)NC1CC1 | 985 |
| Cc1ccc(-c2noc(C3CCCN3S(=O)(=O)c3c(C)cc(C)cc3C)n2)cc1 (stereo not drawn) | 1330 |
| Cc1sc(NC(=O)c2ccc(Br)cc2)nc1-c1ccc2c(c1)NC(=O)C(C)O2 (stereo not drawn) | 1040 |
| CC1CCN(c2nc(C(=O)N(C)c3ccccc3)nc3c2cnn3C)CC1 | 864 |
| Cc1cc(Cl)cc2sc(N(Cc3ccccn3)C(=O)CN(C)S(C)(=O)=O)nc12 | 1080 |
| Cn1nccc1-c1cccc(-c2noc(-c3ccc(C#N)cc3)n2)c1 | 1050 |
| Cc1ccc(-c2noc(-c3cccc(S(=O)(=O)NCCN4CCC(C)CC4)c3)n2)cc1 | 831 |
| COc1ccc(-c2nnc(SCc3ccc(Br)cc3)o2)c(OC)c1 | 1120 |
| O=C(NCc1ccc2c(c1)OCO2)c1ccc(S(=O)(=O)NCC2CCCO2)cc1 (stereo not drawn) | 688 |
| COc1cc(-c2noc(Cc3nnc(-c4cc(F)cc(F)c4)o3)n2)cc(OC)c1OC | 968 |
| COc1cccc(-c2noc(Cn3ccn(-c4ccc(Cl)cc4)c(=O)c3=O)n2)c1OC | 824 |
| COc1ccc(-n2cc(C(=O)OCc3cccnc3)c3ccccc3c2=O)cc1 | 745 |
| Cc1ccc(-c2noc(-c3cccc(S(=O)(=O)Nc4ccc5c(c4)OCCO5)c3)n2)cc1 | 1140 |
| O=c1c2cc(-c3cccs3)nn2cnn1Cc1nc(-c2cccc(Br)c2)no1 | 1150 |
| Cc1ccc(S(=O)(=O)NCCn2c(C)cnc2C2CCC2)c(C)c1 | 675 |

| Compound | RP-LC retention time [s] |
| --- | --- |
| Cc1ccc(-n2ccc(=O)c(-c3nc(-c4cccc(C)c4)no3)n2)cc1 | 974 |
| CC(C)OC(=O)Nc1ccc2nc(-c3cscn3)[nH]c2c1 | 666 |
| Cc1nn(C(C)C)c(C)c1S(=O)(=O)N1CCN(C(=O)C(C)Oc2ccccc2)CC1 (stereo not drawn) | 665 |
| Cc1nnc(N2CCC(C(=O)NCC3CCCO3)CC2)c2nn(-c3ccccc3)c(C)c12 (stereo not drawn) | 632 |
| Cc1ccc(Nc2c(-c3cccc(Br)c3)nc3c(C)cccn23)cc1 | 843 |
| O=c1c2cnn(-c3ccc(F)cc3)c2ncn1Cc1nc(-c2ccc(Br)cc2)no1 | 1140 |
| O=C(CSCc1ccccc1)Nc1ccccc1Cl | 978 |
| CCN1C(=O)COc2ccc(-c3noc(-c4ccc(C(F)(F)F)cc4)n3)cc21 | 1260 |
| CCc1nc(-c2ccc(-c3noc(COc4ccc(OC)cc4)n3)cc2)cs1 | 1270 |
| CCS(=O)(=O)c1nc2ccc(NS(=O)(=O)c3c(C)cc(C)cc3C)cc2s1 | 958 |
| COc1ccc(N2CCN(C(=O)c3[nH]c(C)c(S(=O)(=O)N4CCCC4)c3C)CC2)cc1 | 748 |
| Cc1nc(CSc2ncnc3sc(C)c(C)c23)cs1 | 988 |
| Cc1nn2c(CNS(=O)(=O)c3ccc(C)c(C)c3)c(-c3ccccc3)nc2s1 | 916 |
| Cc1ccc(-c2nnc(-c3cccc(S(=O)(=O)NCc4ccco4)c3)o2)cc1 | 968 |
| O=C(NCc1ccc(F)cc1F)c1c(O)c2cccnc2n(-c2ccccc2)c1=O | 1200 |
| CC1(CNS(=O)(=O)c2ccc(F)c(F)c2)CCOCC1 | 810 |
| CN(Cc1cccn1C)C(=O)NC(C)(C)C | 805 |
| CS(=O)(=O)N1CCC(C(=O)NCc2ccccc2)Oc2ccc(Cl)cc21 (stereo not drawn) | 882 |
| Cc1ccccc1NC(=O)C1CC(=O)N(c2n[nH]c3cccc(F)c23)C1 (stereo not drawn) | 733 |

Continued, values first:

| RP-LC retention time [s] | Compound |
| --- | --- |
| 818 | Cc1ccc(CNC(=O)c2cn(-c3ccc(NC(=O)C4CC4)cn3)cn2)cc1C |
| 736 | O=C(COc1ccc(F)cc1)N1CC(n2cc(COCC3CC3)nn2)C1 |
| 801 | Cc1ccc(NC(=O)N2CCC(n3cnc4c(C)cccc4c3=O)CC2)cc1 |
| 896 | Cc1ccc(CNC(=O)NCCC2CCN(S(=O)(=O)c3ccc(F)cc3)CC2)cc1 |
| 744 | CCCNC(=O)C1CCCN(c2nc3ncn(CC(=O)Nc4cc(F)cc(F)c4)c(=O)c3s2)C1 (stereo not drawn) |
| 755 | CC(=O)N1CCc2ccc(NC(=O)Nc3ccccc3Cl)cc21 |
| 595 | Cc1nc(-c2csc(S(=O)(=O)N3CCC(C(=O)N4CCc5ccccc54)CC3)c2)no1 |
| 713 | COc1ccccc1-c1noc(C2CCCN2C(=O)c2ccc(NC(C)=O)cc2)n1 (stereo not drawn) |
| 883 | Cc1ccc(NC(=O)C2CCN(S(=O)(=O)c3cn(C(C)C)cn3)CC2)cc1Cl |
| 861 | O=c1n(Cc2cc(F)cc(F)c2)nc2c(S(=O)(=O)N3CCCC3)cccn12 |
| 834 | COc1ccc(NC(=O)N2CCC3(CC2)NC(=O)c2cccc(Cl)c2N3)c(C)c1 |
| 873 | CC(C)NC(=O)c1ccc(OCC2CCN(C(=O)c3ccc(F)c(F)c3)CC2)cc1 |
| 804 | O=C(Nc1cnc(N2CCCC2)nc1)c1ccc(F)c(Cl)c1 |
| 726 | Cc1ccccc1NC(=O)C1CCCN(S(=O)(=O)c2cn(C(C)C)cn2)C1 (stereo not drawn) |
| 992 | CCc1ccc(NC(=O)C2CCCN(S(=O)(=O)c3cc(-c4noc(C)n4)cs3)C2)cc1 (stereo not drawn) |
| 754 | C=CC(=O)Nc1cccc(Sc2nc(Nc3ccc(N4CCN(C)CC4)cc3)ncc2Cl)c1 |
| 557 | Cc1cc(N2CCN(C)CC2)nc(N2CCN(C(=O)c3ccc(Br)cc3)CC2)n1 |
| 1140 | Cc1cc(OCC(=O)N2CCCC(C)C2)nc(-c2ccc(Cl)cc2)n1 (stereo not drawn) |
| 920 | Cc1cc(F)ccc1NC(=O)CN1C(=O)CCc2cc(S(=O)(=O)N3CCCCC3C)ccc21 (stereo not drawn) |
| 713 | Cc1cc(N2CCCC2)nc(N2CCN(C(=O)c3ccc(Br)cc3)CC2)n1 |
| 732 | Cc1ccc(Cl)cc1N1CCN(S(=O)(=O)c2nn(C)cc2C(=O)NCCN(C)C)CC1 |
| 617 | CN(C)c1ccc(CNC(=O)c2ccc3c(c2)NC(=O)C2CCCCN32)cc1 (stereo not drawn) |
| 727 | COc1ccc(NS(=O)(=O)c2cc(-c3nc(C)c(C(=O)N4CCCC4)s3)n(C)c2)cc1OC |
| 798 | O=C(c1cnccn1)N1CCCC1c1nc(-c2cccc(C(F)(F)F)c2)no1 (stereo not drawn) |
| 968 | CC(C)(C)c1noc(-c2cccnc2-n2cnc(C(=O)NC3CCCC3)c2)n1 |
| 672 | CCNC(=O)N1CC=C(C(=O)Nc2ccc(F)cc2)CC1 |
| 767 | Cc1ccccc1CNC(=O)c1cc2n(n1)CC(C)(C(=O)NC1CCCC1)N(C)C2=O (stereo not drawn) |
| 1190 | COc1ccc(NC(=O)C2CCCN(c3nc4ccccc4nc3C(F)(F)F)C2)c(OC)c1 (stereo not drawn) |
| 714 | COCCn1c(-c2cccc(OC)c2)cnc1NC(=O)Nc1cccc(Cl)c1 |
